From PMC3608514 (Advances in enzyme regulation, 2009)
pKi: −log10 of the molar value.

Assays:
DGK-θ [1] = biological target: T1, DGK-θ (Homo sapiens, UniProt P52824); assay: DGK activity assay; type: biochemical
T1 sequence (P52824 1-942): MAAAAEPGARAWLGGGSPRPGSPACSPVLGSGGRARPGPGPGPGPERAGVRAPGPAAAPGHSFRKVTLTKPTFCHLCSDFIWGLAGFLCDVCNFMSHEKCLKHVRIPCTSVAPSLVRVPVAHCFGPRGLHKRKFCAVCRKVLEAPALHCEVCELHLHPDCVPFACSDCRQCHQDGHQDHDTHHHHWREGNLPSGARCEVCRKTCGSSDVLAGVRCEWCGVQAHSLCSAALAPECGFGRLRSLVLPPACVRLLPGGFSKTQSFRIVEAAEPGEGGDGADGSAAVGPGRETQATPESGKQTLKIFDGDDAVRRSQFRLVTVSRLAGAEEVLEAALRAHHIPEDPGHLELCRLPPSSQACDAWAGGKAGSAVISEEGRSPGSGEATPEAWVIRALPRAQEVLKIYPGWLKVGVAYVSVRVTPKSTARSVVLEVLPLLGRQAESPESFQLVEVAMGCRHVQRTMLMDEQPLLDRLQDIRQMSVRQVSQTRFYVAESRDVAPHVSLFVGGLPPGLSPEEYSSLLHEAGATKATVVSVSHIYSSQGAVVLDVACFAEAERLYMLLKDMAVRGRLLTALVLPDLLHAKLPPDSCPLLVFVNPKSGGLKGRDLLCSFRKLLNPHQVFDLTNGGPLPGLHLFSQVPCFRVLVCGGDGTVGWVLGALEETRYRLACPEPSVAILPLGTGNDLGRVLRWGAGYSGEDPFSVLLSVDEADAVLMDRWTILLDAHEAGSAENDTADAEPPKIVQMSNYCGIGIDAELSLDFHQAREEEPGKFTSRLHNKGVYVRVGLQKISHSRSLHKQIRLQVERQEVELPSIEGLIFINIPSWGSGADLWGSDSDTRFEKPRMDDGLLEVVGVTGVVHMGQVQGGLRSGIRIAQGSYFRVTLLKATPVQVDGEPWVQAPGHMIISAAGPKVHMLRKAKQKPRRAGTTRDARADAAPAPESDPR

DGK-θ [2] = biological target: T1, DGK-θ

SMILES	pKi (DGK-θ [1])	DGK activity assay in OG mixed micelles with cytosol over-expressing DGKθ; dose (DGK-θ [2]) [mM]
COc1ccc2c(c1)CC[C@@H]1[C@@H]2CC[C@]2(C)[C@@H](NCCCCCCN3C(=O)C=CC3=O)CC[C@@H]12 [U73122]	~4.70	–
O=P(O)(O)OP(=O)(O)O [NaPPi, sodium pyrophosphate]	–	1 to 2
